{"source": "patent US20170007704A1", "about": "“CARRIER AND PHARMACEUTICAL COMPOSITIONS FOR INTRASINAL DELIVERY AND USES THEREOF” (priority 2015, published 2017)", "test_system": "multi-drug resistant P. aeruginosa", "test": "Susceptibility of the patient's positive bacterial culture", "assay_type": "cell-based", "conditions": "positive bacterial culture of the patient before treatment", "description": "The patient was a person with an 8 year history of chronic rhinosinusitis with daily and recurrent symptoms including facial congestion, facial pain and pressure, headaches and mucopurulent nasal drainage. The patient achieved limited success with previous treatments which included oral antibiotics, oral/nasal corticosteroids, antibiotic irrigation, saline rinses and suctioning. A positive bacterial culture indicated the presence of multi-drug resistant P. aeruginosa, susceptible only to colistimethate. Colistimethate was only commercially available as a solution for intravenous infusion, requiring hospitalization and constant monitoring for neurotoxicity and nephrotoxicity. In order to avoid the intravenous route of administration and the necessary hospitalization, a novel topical formulation was prescribed, consisting of: […]"}
{"substance": "colistimethate", "values": [{"measurement": "susceptibility of cultured pathogen", "result": "susceptible"}]}
